What all share (test): KINOMEscan competitive binding, whole panel
In assay [1] the target is T1, panel of 203 kinases (Homo sapiens, UniProt P54756).
T1 construct: purchased DiscoverX (KINOMEscan)
The settings on record: 10 µM, n=1; kinase EPHA5; read-out: Percent inhibition EPHA5. From the text:
(§1) The kinases were expressed as fusions to T7 bacteriophage. This is a sensitive, competitive binding assay where test compounds were used to displace immobilized ATP-site binding probe ligands from kinases of interest. The amount of kinase that remained bound to the immobilized probe ligands on the solid support was quantified. Percentage inhibition data were was plotted on kinome trees using the web-based tool KinMap (http://www.kinhub.org/kinmap) ([60]).

Assay [2] has as its target T2, panel of 203 kinases (Homo sapiens, UniProt P45984).
T2 construct: purchased DiscoverX (KINOMEscan)
The conditions noted are these: 10 µM, n=1; kinase JNK2; read-out: Percent inhibition JNK2.
Excerpt: as §1

Assay [3] deals with T3, panel of 203 kinases (Homo sapiens, UniProt Q15759).
T3 construct: purchased DiscoverX (KINOMEscan)
T3 sequence (Q15759 whole entry): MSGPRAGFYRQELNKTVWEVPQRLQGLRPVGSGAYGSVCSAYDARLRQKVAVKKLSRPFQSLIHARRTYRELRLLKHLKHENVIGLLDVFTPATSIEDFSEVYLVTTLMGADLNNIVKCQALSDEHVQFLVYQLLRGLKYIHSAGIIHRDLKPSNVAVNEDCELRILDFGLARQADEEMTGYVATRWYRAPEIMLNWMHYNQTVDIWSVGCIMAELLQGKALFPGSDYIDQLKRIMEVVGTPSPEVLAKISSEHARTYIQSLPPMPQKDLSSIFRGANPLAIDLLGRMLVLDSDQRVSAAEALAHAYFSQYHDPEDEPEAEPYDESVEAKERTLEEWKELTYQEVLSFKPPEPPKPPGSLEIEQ
The settings on record: 10 µM, n=1; kinase p38-beta; read-out: Percent inhibition p38-beta.
Excerpt: as §1

Assay [4] has as its target T4, panel of 203 kinases (Homo sapiens, UniProt Q13131).
T4 construct: purchased DiscoverX (KINOMEscan)
The settings on record: 10 µM, n=1; kinase AMPK-alpha1; read-out: Percent inhibition AMPK-alpha1.
Excerpt: as §1

Assay [5] deals with T5, panel of 203 kinases (Homo sapiens, UniProt P53778).
T5 construct: purchased DiscoverX (KINOMEscan)
T5 sequence (P53778 1-367): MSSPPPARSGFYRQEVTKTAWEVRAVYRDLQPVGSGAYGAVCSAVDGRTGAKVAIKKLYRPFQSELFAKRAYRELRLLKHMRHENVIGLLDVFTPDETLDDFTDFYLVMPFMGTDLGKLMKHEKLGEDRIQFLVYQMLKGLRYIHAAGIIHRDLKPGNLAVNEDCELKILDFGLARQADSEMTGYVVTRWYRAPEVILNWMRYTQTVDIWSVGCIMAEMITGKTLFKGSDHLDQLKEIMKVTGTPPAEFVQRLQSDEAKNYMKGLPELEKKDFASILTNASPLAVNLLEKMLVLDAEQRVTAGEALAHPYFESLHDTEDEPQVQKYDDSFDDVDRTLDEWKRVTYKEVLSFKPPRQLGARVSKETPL
The settings on record: 10 µM, n=1; kinase p38-gamma; read-out: Percent inhibition p38-gamma.
Excerpt: as §1

Assay [6] addresses T6, panel of 203 kinases (Homo sapiens, UniProt Q9UF33).
T6 construct: purchased DiscoverX (KINOMEscan)
T6 sequence (Q9UF33 23-1036): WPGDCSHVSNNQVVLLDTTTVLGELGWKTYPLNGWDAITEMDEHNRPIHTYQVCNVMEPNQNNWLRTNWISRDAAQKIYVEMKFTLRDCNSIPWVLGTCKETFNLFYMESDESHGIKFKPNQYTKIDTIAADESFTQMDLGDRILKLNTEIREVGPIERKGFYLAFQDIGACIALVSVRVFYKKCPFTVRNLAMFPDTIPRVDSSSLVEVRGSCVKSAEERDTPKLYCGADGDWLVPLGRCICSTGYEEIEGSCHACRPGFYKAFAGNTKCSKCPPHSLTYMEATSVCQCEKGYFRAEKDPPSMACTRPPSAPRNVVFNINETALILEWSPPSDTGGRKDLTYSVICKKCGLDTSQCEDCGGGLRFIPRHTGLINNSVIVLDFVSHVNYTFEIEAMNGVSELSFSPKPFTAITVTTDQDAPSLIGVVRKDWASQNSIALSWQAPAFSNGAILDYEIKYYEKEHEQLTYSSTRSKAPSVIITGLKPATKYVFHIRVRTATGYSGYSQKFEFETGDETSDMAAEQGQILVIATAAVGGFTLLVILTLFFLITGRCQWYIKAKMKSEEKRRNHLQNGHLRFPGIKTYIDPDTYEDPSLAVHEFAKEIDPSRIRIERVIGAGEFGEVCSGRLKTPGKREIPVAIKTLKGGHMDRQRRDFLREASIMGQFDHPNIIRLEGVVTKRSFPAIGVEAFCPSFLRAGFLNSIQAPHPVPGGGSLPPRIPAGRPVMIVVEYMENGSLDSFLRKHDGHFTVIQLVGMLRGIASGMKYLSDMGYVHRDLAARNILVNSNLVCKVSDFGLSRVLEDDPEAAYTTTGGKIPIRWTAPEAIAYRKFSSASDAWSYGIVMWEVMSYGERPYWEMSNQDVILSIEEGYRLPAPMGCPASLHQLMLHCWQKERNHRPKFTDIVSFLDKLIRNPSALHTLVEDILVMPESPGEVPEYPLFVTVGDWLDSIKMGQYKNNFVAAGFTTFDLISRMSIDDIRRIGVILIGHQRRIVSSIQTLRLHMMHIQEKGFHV
The settings on record: 10 µM, n=1; kinase EPHA6; read-out: Percent inhibition EPHA6.
Excerpt: as §1

Assay [7] addresses T7, panel of 203 kinases (Homo sapiens, UniProt P31751).
T7 construct: purchased DiscoverX (KINOMEscan)
The settings on record: 10 µM, n=1; kinase AKT2; read-out: Percent inhibition AKT2.
Excerpt: as §1

Assay [8] concerns the target T8, panel of 203 kinases (Homo sapiens, UniProt Q8IU85).
T8 construct: purchased DiscoverX (KINOMEscan)
The settings on record: 10 µM, n=1; kinase CAMK1D; read-out: Percent inhibition CAMK1D.
Excerpt: as §1

The target of assay [9] is T9, panel of 203 kinases (Homo sapiens, UniProt P53779).
T9 construct: purchased DiscoverX (KINOMEscan)
T9 sequence (P53779 whole entry): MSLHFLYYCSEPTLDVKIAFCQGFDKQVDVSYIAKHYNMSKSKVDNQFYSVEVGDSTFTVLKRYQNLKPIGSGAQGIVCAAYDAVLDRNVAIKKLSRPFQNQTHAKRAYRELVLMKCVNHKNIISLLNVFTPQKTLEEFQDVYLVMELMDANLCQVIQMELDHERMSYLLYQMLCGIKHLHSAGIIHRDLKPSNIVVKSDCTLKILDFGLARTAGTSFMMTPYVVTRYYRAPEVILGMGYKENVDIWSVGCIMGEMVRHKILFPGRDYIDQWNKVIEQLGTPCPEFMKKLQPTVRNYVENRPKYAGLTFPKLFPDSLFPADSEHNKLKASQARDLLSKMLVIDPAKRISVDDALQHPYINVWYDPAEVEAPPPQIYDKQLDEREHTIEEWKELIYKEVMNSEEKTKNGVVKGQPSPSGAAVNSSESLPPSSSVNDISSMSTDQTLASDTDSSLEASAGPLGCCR
The conditions noted are these: 10 µM, n=1; kinase JNK3; read-out: Percent inhibition JNK3.
Excerpt: as §1

These results are taken from paper PMC9927415, “Tyrosine Kinase Inhibitors Display Potent Activity against Cryptosporidium parvum” (Microbiology Spectrum, 2022).

T8 sequence (Q8IU85 whole entry): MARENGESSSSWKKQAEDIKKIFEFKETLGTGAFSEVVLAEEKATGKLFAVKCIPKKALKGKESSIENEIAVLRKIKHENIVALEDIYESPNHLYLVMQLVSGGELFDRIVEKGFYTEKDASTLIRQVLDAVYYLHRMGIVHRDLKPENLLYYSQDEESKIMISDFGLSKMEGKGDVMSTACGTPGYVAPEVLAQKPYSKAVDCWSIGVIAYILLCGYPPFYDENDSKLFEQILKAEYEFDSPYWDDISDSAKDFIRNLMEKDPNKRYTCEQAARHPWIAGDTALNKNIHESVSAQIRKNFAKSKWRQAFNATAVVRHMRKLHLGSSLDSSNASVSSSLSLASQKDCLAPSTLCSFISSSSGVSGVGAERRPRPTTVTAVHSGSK
T7 sequence (P31751 whole entry): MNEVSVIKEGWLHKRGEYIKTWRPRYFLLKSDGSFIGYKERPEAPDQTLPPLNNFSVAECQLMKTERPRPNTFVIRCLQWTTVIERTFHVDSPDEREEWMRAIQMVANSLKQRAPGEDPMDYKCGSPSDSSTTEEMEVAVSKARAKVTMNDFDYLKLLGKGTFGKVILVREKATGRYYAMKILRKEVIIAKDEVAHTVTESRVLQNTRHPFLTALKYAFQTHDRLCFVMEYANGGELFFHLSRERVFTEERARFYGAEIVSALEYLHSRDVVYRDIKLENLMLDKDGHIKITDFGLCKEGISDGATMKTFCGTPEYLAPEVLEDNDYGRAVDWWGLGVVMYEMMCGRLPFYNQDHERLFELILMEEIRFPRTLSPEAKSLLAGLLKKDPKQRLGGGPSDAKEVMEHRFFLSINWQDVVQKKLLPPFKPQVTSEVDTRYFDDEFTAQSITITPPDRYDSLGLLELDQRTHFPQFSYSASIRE
T1 sequence (P54756 25-1037): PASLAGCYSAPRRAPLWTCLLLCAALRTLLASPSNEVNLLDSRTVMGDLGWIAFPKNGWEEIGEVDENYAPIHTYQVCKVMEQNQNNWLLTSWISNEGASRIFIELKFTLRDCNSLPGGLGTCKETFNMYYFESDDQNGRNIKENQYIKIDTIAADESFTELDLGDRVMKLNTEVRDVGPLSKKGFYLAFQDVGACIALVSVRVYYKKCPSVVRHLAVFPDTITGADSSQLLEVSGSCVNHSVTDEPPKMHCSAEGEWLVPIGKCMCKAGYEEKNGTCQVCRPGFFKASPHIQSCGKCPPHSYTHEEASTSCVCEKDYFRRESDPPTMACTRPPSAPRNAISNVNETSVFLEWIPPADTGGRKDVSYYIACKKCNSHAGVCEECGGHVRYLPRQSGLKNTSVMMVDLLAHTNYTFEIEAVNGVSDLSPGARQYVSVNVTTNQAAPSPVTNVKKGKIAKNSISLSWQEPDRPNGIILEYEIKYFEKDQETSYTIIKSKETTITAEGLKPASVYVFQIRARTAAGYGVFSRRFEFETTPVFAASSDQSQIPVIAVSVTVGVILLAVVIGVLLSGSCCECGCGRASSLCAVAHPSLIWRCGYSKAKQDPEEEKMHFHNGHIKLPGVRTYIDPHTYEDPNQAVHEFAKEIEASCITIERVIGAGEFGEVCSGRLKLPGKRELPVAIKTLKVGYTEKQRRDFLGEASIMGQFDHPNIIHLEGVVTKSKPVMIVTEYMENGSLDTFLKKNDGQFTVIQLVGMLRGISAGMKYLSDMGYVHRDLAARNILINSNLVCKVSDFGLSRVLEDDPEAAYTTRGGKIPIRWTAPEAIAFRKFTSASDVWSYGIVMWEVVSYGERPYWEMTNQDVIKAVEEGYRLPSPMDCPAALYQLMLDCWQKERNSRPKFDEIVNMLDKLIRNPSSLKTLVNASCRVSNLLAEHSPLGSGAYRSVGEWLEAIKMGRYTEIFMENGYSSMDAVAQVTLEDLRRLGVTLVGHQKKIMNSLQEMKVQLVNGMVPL
T2 sequence (P45984 whole entry): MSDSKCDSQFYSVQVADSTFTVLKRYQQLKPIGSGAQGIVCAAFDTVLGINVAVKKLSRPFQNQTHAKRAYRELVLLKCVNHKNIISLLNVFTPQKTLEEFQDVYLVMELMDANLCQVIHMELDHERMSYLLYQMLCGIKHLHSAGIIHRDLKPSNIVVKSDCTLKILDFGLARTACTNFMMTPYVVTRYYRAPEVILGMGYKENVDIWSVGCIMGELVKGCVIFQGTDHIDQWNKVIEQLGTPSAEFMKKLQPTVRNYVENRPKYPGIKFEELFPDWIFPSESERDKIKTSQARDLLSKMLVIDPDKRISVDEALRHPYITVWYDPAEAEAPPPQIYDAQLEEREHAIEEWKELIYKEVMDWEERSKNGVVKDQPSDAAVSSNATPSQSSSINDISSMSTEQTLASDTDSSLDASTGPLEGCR
T4 sequence (Q13131 whole entry): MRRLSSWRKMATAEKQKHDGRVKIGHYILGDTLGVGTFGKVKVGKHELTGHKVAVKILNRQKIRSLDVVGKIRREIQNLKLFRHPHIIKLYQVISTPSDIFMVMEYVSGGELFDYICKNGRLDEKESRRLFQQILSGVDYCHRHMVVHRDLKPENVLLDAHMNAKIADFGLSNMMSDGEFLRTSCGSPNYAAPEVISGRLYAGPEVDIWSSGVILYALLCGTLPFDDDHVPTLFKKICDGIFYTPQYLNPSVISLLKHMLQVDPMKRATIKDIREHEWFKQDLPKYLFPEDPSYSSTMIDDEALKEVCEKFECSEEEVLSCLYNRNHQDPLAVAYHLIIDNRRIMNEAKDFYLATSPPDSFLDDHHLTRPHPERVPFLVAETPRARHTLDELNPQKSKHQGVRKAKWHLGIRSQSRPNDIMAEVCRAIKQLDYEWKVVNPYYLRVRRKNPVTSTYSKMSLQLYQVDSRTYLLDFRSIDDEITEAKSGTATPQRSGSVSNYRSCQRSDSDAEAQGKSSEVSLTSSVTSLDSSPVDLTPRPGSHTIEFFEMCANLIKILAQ

As for `CN1CCN(c2ccc(Nc3nccc(-c4cnn5ncccc45)n3)cc2C#N)CC1` [Compound 1], the inhibition at 10 µM at panel of 203 kinases [1] is 80.2%; at panel of 203 kinases [2], 96.5%; at panel of 203 kinases [3], 0%; at panel of 203 kinases [4] it was 75.7%; at panel of 203 kinases [5] it was 0%; on panel of 203 kinases [6], 0%. For the same molecule, the inhibition at 10 µM on panel of 203 kinases [7] was found to be 0%; at panel of 203 kinases [8], 98.3%; at panel of 203 kinases [9], 100%.
As for `COc1ccc(Nc2nccc(-c3cnn4ncccc34)n2)cc1` [Compound 2], the inhibition at 10 µM on panel of 203 kinases [1] amounted to 91.8%; at panel of 203 kinases [2], 99.1%; on panel of 203 kinases [3], 0%; on panel of 203 kinases [4], 0%; on panel of 203 kinases [5], 88.4%; on panel of 203 kinases [6] it was 65.1%. The inhibition at 10 µM at panel of 203 kinases [7] turned out to be 0%; at panel of 203 kinases [8] it was 0%; at panel of 203 kinases [9], 100%.
Take `Cc1ccc(O)cc1Nc1ccnc(Nc2cccc(C(N)=O)c2)n1` [Compound 3]: the inhibition at 10 µM on panel of 203 kinases [1] was 100%; on panel of 203 kinases [2], 0%; at panel of 203 kinases [3], 94.8%; at panel of 203 kinases [4], 0%; on panel of 203 kinases [5] it was 0%; on panel of 203 kinases [6], 100%. The inhibition at 10 µM at panel of 203 kinases [7] was 0%; at panel of 203 kinases [8], 0%; at panel of 203 kinases [9], 94.2%.
With `Cc1ccc(O)cc1N(C)c1ccnc(Nc2cccc(S(N)(=O)=O)c2)n1` [Compound 4], the inhibition at 10 µM at panel of 203 kinases [1] was determined as 100%; at panel of 203 kinases [2] it was 71.3%; at panel of 203 kinases [3], 100%; on panel of 203 kinases [4] it was 0%; on panel of 203 kinases [5], 93%; on panel of 203 kinases [6] it was 100%. The values for the inhibition at 10 µM at panel of 203 kinases [7], on panel of 203 kinases [8] and at panel of 203 kinases [9] were 0%, 70% and 96.1%, respectively.
As to `Fc1cccc(COc2ccc(Nc3ncnc4c3CN(CCN3CCOCC3)CC4)cc2Cl)c1` [Compound 6], the inhibition at 10 µM at panel of 203 kinases [1], at panel of 203 kinases [2], at panel of 203 kinases [3], on panel of 203 kinases [4], at panel of 203 kinases [5] and at panel of 203 kinases [6] was 0% each time. In addition, the inhibition at 10 µM on panel of 203 kinases [7], on panel of 203 kinases [8] and on panel of 203 kinases [9] was 0% throughout.
As for `COc1cc(Nc2nccc(-c3sc(N)nc3-c3cccc(NC(=O)c4c(F)cccc4F)c3)n2)cc(OC)c1OC` [Compound 7], the inhibition at 10 µM at panel of 203 kinases [1] amounted to 100%; on panel of 203 kinases [2] it was 99%; at panel of 203 kinases [3], 100%; on panel of 203 kinases [4] it was 98.4%; on panel of 203 kinases [5], 0%; at panel of 203 kinases [6] it was 100%. The figures for the inhibition at 10 µM at panel of 203 kinases [7], on panel of 203 kinases [8] and on panel of 203 kinases [9] were 0%, 91.8% and 100%, respectively.
Consider `C[C@@H](Oc1cc(-c2cnc3ccccn23)sc1C(N)=O)c1ccccc1Cl` [Compound 8], for which the inhibition at 10 µM on panel of 203 kinases [1], on panel of 203 kinases [2], on panel of 203 kinases [3], at panel of 203 kinases [4], on panel of 203 kinases [5] and at panel of 203 kinases [6] was 0% each time. Besides, the inhibition at 10 µM at panel of 203 kinases [7], at panel of 203 kinases [8] and on panel of 203 kinases [9] was 0% in each case.
Regarding `c1ccc(COc2cccc(-c3ccnc4[nH]ccc34)c2)cc1` [Compound 9], the inhibition at 10 µM on panel of 203 kinases [1], on panel of 203 kinases [2], on panel of 203 kinases [3], at panel of 203 kinases [4], on panel of 203 kinases [5] and at panel of 203 kinases [6] was 0% in each case. For the same molecule, the inhibition at 10 µM at panel of 203 kinases [7], at panel of 203 kinases [8] and at panel of 203 kinases [9] was 0% in each case.
`Clc1ccc(Nc2ncc(-c3ccccc3)s2)cc1` [Compound 10]: the inhibition at 10 µM at panel of 203 kinases [1], on panel of 203 kinases [2], on panel of 203 kinases [3], at panel of 203 kinases [4], on panel of 203 kinases [5] and on panel of 203 kinases [6] was 0% throughout. In addition, the inhibition at 10 µM at panel of 203 kinases [7], at panel of 203 kinases [8] and at panel of 203 kinases [9] was 0% in each case.
`Nc1ncc2c(-c3ccncc3)c[nH]c2n1` [Compound 11]: the inhibition at 10 µM on panel of 203 kinases [1], at panel of 203 kinases [2], at panel of 203 kinases [3], on panel of 203 kinases [4], on panel of 203 kinases [5] and on panel of 203 kinases [6] was 0% each time. Besides, the inhibition at 10 µM at panel of 203 kinases [7] worked out at 0%; on panel of 203 kinases [8], 0%; at panel of 203 kinases [9], 97.1%.

One may read the inhibition as the relative decrease from the control value, in per cent.
